Type in all cases: in vivo
The subject of experiment [1] is MDA-MB-231 human breast cancer cells. In words: Tumor volume in MDA-MB-231 tumor-bearing mice. The conditions noted are these: 5-FU alone 30 mg/kg TIW vs vehicle control. How it is done: (§1) Immunocompromised, Nu/Nu, Female athymic nu/nu (nude) mice (ages 5-6 weeks, LASCO) were purchased from LASCO. Animals were housed in individual HEPA ventilated cages (Innocage® IVC, Innovive USA) housed for stabilization. Fluorescent lighting was provided on a 12-hour cycle under temperature (20-23° C.) and humidity control (30-70%). Rodent feed and water were provided ad libitum.
MDA-MB-231 human breast cancer Cells (5×10^6) in PBS buffer were implanted subcutaneously on the right flank of each mouse. Once tumors were detectable, palpable and measurable, the primary tumor volumes were measured and recorded every 3 or 4 days. Tumor volume was calculated as ½×L×W^2, where L is the length and W is the width. […] Subjects were terminated from the study when the tumor volume reached approximately 1500 mm^3 or the body weight loss was greater than 20% (IACUC protocol limits).

Experiment [2] concerns HT-29 human colon adenocarcinoma cells. The experiment is described as follows: Tumor volume / TGI in HT-29 tumor-bearing mice. As to conditions: for TGI (tumor growth inhibition rate): HT-29 mice, 5-FU 50 mg/kg QW. How it is done: as §1
HT-29 human colon adenocarcinoma cells (2×10^7) in PBS buffer were implanted subcutaneously on the right flank of each mouse. Once tumors were detectable, palpable and measurable, the primary tumor volumes were measured and recorded every 3 or 4 days. Tumor volume was calculated as ½(4π/3)(L/2)(W/2)H, where L is the length, W is the width, and H is the height of the tumor. […] Subjects were terminated from the study when the tumor volume reached approximately 1500 mm^3 or the body weight loss was greater than 20% (IACUC protocol limits).

Experiment [3] concerns CT26 mouse colon carcinoma. The experiment is described as follows: Tumor volume / TGI in CT26 mice. As to conditions: 5-FU alone 50 mg/kg IV QW. How it is done:
Immunocompetent, female Balb/C […] mice (ages 6-8 weeks) were ordered and received from National Laboratory Animal Center. Animals were housed on irradiated corncob bedding in micro-isolator caging. Fluorescent lighting was provided on a 12-hour cycle under temperature (20-23° C.) and humidity control (30-70%). Rodent feed and autoclaved acidified water (pH 2.5-3) were provided ad libitum.
CT26 is an N-nitroso-N-methylurethane-(NNMU) induced, undifferentiated mouse colon carcinoma cell line. CT26 carcinoma cells were grown in McCoy's 5a culture medium supplemented with 10% (v/v) FBS and 1% PSN antibiotic mixture. The cells were maintained in an incubator with a humidified environment of 5% CO^2 at 37° C. in a 175 cm 2 flask and subcultured 2-3 times each week. On the study day, CT26 cells were thawed and prepared for inoculation into mice. Cells were washed in PBS, counted, and resuspended in cold PBS at concentrations of 2×10^6 viable cells/0.1 ml. […]
Animals were monitored weekly for palpable tumors or any changes in appearance or behavior. Once tumors were palpable, they were measured using calipers. Tumor volume was calculated using the following equation ½(4π/3)(L/2)(W/2)H, where L is the length, W is the width, and H is the height of the tumor. […] Data were expressed as mean±SEM.

Each structure is given as a SMILES string.

Turning to `O=c1[nH]cc(F)c(=O)[nH]1` [5-FU, 5-fluorouracil], the tumor growth entry in experiment [1] is given as “did reduce tumor growth”; in experiment [2] (HT-29 tumor-bearing mice, 5-FU alone 50 mg/kg QW vs vehicle control) it was “did not reduce tumor growth”. In addition, the entries for the “TGI (tumor growth inhibition rate)” value in experiment [2] (D21) and in experiment [2] (D28) were around 60% and around 45%, respectively. Also, in experiment [3], the TGI rate entry is “approximately 70%”.

The record behind these values is patent US20240050579A1, “HYALURONAN-NIMESULIDE CONJUGATE FOR TREATING LOCALLY ADVANCED OR METASTATIC TUMORS” (Aihol Corporation, priority 2022, published 2024).
